From US11945822B2, “Pyrazolo-triazine and/or pyrazolo-pxrimidine derivatives as selective inhibitor of cyclin dependent kinase” (QURIENT CO., LTD., priority 2018, dated 2024)

What follows are compounds tested against T1, CDK1/Cyclin B (Homo sapiens, UniProt P06493) (assay: Enzymatic assay for CDK1 (FRET based LANCE Ultra kinase assay)). Conditions: read-out: CDK1 enzymatic activity (IC50 activity range).
T1 construct: purchased Invitrogen PR4768C
Format: biochemical
How it was run: (§1)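 LANCE Ultra TR-FRET: ULight-MBP peptide (68 nM) with ATP at Km, […], 60 min at 23° C. EDTA plus Eu-anti-phospho-MBP added, another 60 min, then 665/615 nm emission read. Compounds tested as 8-dose 4-fold DMSO dilutions.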

T1 sequence (P06493 whole entry): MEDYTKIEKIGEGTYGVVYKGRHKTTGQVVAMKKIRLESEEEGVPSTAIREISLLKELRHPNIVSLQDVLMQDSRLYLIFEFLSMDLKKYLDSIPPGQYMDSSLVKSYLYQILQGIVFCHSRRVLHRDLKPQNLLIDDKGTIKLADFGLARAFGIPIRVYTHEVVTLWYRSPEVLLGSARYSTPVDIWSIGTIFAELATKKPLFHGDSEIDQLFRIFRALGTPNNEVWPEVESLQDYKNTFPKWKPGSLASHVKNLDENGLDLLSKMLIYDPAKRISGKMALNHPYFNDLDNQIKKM
T1 sequence (P14635 whole entry partner): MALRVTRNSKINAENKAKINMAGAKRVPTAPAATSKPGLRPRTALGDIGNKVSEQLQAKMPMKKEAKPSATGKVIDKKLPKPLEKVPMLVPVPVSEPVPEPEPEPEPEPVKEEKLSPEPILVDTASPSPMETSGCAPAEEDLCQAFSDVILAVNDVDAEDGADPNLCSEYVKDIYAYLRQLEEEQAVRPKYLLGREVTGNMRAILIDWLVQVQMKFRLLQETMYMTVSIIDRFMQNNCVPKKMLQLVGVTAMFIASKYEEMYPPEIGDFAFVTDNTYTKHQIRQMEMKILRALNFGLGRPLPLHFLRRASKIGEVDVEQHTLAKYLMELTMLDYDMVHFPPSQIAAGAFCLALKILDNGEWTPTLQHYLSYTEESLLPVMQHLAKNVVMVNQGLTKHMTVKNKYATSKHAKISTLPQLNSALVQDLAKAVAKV

Row | IC50 [nM] | Compound
1 | > 1000 | CC(C)c1cnn2c(NCc3ccccc3-c3ccc4ccccc4n3)nc(N3CCCC[C@H]3CO)nc12 [Compound 263]
2 | > 1000 | CC(C)c1cnn2c(NCc3c(Cl)cccc3-n3ccc(C(C)(C)O)n3)nc(N3CCC(F)(CN)CC3)nc12 [Compound 252]
3 | > 1000 | CC(C)c1cnn2c(NCc3c(Cl)cccc3N3CC[C@@H](C(C)(C)O)C3)nc(N3CCC(N)CC3)nc12 [Compound 254]
4 | > 1000 | CC(C)c1cnn2c(NCc3c(Cl)cccc3-c3cc(C(C)(C)O)nn3C)nc(N3CCC(N)CC3)nc12 [Compound 258]

These compounds were tested against T2, CDK2/Cyclin A (Homo sapiens, UniProt P24941) (assay: Enzymatic assay for CDK2 (FRET based LANCE Ultra kinase assay)). Conditions: read-out: CDK2 enzymatic activity (IC50 activity range).
T2 construct: purchased Invitrogen PV6290
Format: biochemical
How it was run: as §1

Row | IC50 [nM] | Compound
5 | > 1000 | CC(C)c1cnn2c(NCc3ccccc3-c3ccc4ccccc4n3)nc(N3CCCC[C@H]3CO)nc12 [Compound 263]
6 | > 1000 | CC(C)c1cnn2c(NCc3c(Cl)cccc3-n3ccc(C(C)(C)O)n3)nc(N3CCC(F)(CN)CC3)nc12 [Compound 252]
7 | > 1000 | CC(C)c1cnn2c(NCc3c(Cl)cccc3N3CC[C@@H](C(C)(C)O)C3)nc(N3CCC(N)CC3)nc12 [Compound 254]
8 | > 1000 | CC(C)c1cnn2c(NCc3c(Cl)cccc3-c3cc(C(C)(C)O)nn3C)nc(N3CCC(N)CC3)nc12 [Compound 258]

What follows are compounds tested against T3, CDK5/p25 (Homo sapiens, UniProt Q00535) (assay: Enzymatic assay for CDK5 (FRET based LANCE Ultra kinase assay)). Conditions: read-out: CDK5 enzymatic activity (IC50 activity range).
T3 construct: purchased Invitrogen PR8543B
T3 sequence (Q00535 whole entry): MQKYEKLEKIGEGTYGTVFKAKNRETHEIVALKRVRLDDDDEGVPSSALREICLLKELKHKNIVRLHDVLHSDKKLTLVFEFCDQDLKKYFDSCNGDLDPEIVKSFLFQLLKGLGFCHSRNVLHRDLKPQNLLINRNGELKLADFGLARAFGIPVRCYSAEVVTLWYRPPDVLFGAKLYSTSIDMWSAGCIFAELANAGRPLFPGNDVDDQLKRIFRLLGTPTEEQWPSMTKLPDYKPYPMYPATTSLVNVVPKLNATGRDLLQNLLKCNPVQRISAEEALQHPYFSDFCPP
T3 sequence (Q15078 99-307 partner limits assumed): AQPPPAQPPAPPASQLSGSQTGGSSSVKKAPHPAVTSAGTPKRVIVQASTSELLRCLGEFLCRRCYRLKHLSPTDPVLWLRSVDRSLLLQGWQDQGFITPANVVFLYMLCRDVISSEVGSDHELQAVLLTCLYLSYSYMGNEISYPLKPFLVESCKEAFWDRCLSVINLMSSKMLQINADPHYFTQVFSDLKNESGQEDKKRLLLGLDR
Format: biochemical
How it was run: as §1

Row | IC50 [nM] | Compound
9 | > 1000 | CC(C)c1cnn2c(NCc3ccccc3-c3ccc4ccccc4n3)nc(N3CCCC[C@H]3CO)nc12 [Compound 263]
10 | > 1000 | CC(C)c1cnn2c(NCc3c(Cl)cccc3-n3ccc(C(C)(C)O)n3)nc(N3CCC(F)(CN)CC3)nc12 [Compound 252]
11 | 100 to 1000 | CC(C)c1cnn2c(NCc3c(Cl)cccc3N3CC[C@@H](C(C)(C)O)C3)nc(N3CCC(N)CC3)nc12 [Compound 254]
12 | > 1000 | CC(C)c1cnn2c(NCc3c(Cl)cccc3-c3cc(C(C)(C)O)nn3C)nc(N3CCC(N)CC3)nc12 [Compound 258]

These compounds were tested against T4, CDK7/Cyclin H/MNAT1 (Homo sapiens, UniProt P50613) (assay: Enzymatic assay for CDK7 (FRET based LANCE Ultra kinase assay)). Conditions: CDK1/CDK7.
T4 construct: purchased Invitrogen PR6749B
T4 sequence (P50613 whole entry): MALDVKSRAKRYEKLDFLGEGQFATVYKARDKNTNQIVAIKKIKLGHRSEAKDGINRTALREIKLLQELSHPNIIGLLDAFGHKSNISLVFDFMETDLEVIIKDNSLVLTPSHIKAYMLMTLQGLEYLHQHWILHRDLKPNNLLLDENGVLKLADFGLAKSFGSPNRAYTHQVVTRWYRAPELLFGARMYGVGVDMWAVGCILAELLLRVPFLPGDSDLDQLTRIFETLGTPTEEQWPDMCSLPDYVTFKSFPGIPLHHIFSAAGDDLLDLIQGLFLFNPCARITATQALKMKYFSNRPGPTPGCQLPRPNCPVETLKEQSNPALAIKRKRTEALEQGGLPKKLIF
T4 sequence (P51946 whole entry partner): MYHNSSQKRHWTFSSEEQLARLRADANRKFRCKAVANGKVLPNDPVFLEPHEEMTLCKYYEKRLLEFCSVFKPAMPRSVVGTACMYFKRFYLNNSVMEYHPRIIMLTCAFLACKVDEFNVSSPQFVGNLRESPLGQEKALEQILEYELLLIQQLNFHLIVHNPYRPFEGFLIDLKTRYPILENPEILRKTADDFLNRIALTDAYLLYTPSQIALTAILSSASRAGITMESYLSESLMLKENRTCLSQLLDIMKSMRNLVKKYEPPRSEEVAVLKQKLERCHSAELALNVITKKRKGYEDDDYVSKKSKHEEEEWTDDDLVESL
T4 sequence (P51948 whole entry partner): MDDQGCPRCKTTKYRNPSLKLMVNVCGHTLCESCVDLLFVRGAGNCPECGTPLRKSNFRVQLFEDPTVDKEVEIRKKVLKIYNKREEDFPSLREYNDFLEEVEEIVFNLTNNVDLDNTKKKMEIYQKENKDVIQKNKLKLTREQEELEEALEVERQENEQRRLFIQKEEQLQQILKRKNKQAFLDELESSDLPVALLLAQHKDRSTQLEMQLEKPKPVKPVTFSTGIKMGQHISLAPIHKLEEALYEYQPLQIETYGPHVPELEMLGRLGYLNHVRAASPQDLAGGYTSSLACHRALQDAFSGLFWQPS
Format: biochemical
How it was run: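 LANCE Ultra TR-FRET kinase assay using a ULight-labeled peptide substrate and a Eu-labeled anti-phospho antibody, with ATP at its Km. Purified CDK/cyclin complex was added to compound after brief centrifugation.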

Row | CDK1/CDK7: Selectivity of CDK7 inhibition over CDK1 inhibition | Compound
13 | A (A=greater than 200 fold) | CC(C)c1cnn2c(NCc3c(Cl)cccc3-n3ccc(C(C)(C)O)n3)nc(N3CCC(F)(CN)CC3)nc12 [Compound 252]
14 | A (A=greater than 200 fold) | CC(C)c1cnn2c(NCc3c(Cl)cccc3N3CC[C@@H](C(C)(C)O)C3)nc(N3CCC(N)CC3)nc12 [Compound 254]
15 | A (A=greater than 200 fold) | CC(C)c1cnn2c(NCc3c(Cl)cccc3-c3cc(C(C)(C)O)nn3C)nc(N3CCC(N)CC3)nc12 [Compound 258]

Row | Compound | CDK1/CDK7: Selectivity of CDK7 inhibition over CDK1 inhibition
16 | CC(C)c1cnn2c(NCc3ccccc3-c3ccc4ccccc4n3)nc(N3CCCC[C@H]3CO)nc12 [Compound 263] | B (B=less than 200 fold, but greater than 20 fold)

Same assay, conditions: CDK2/CDK7

Row | Compound | CDK2/CDK7: Selectivity of CDK7 inhibition over CDK2 inhibition
17 | CC(C)c1cnn2c(NCc3ccccc3-c3ccc4ccccc4n3)nc(N3CCCC[C@H]3CO)nc12 [Compound 263] | B (B=less than 200 fold, but greater than 20 fold)
18 | CC(C)c1cnn2c(NCc3c(Cl)cccc3-n3ccc(C(C)(C)O)n3)nc(N3CCC(F)(CN)CC3)nc12 [Compound 252] | A (A=greater than 200 fold)
19 | CC(C)c1cnn2c(NCc3c(Cl)cccc3N3CC[C@@H](C(C)(C)O)C3)nc(N3CCC(N)CC3)nc12 [Compound 254] | B (B=less than 200 fold, but greater than 20 fold)
20 | CC(C)c1cnn2c(NCc3c(Cl)cccc3-c3cc(C(C)(C)O)nn3C)nc(N3CCC(N)CC3)nc12 [Compound 258] | A (A=greater than 200 fold)

Same assay, conditions: CDK5/CDK7

Row | Compound | CDK5/CDK7: Selectivity of CDK7 inhibition over CDK5 inhibition
21 | CC(C)c1cnn2c(NCc3ccccc3-c3ccc4ccccc4n3)nc(N3CCCC[C@H]3CO)nc12 [Compound 263] | B (B=less than 200 fold, but greater than 20 fold)
22 | CC(C)c1cnn2c(NCc3c(Cl)cccc3-n3ccc(C(C)(C)O)n3)nc(N3CCC(F)(CN)CC3)nc12 [Compound 252] | A (A=greater than 200 fold)
23 | CC(C)c1cnn2c(NCc3c(Cl)cccc3N3CC[C@@H](C(C)(C)O)C3)nc(N3CCC(N)CC3)nc12 [Compound 254] | B (B=less than 200 fold, but greater than 20 fold)
24 | CC(C)c1cnn2c(NCc3c(Cl)cccc3-c3cc(C(C)(C)O)nn3C)nc(N3CCC(N)CC3)nc12 [Compound 258] | A (A=greater than 200 fold)

Same assay, conditions: read-out: CDK7 enzymatic activity (IC50 activity range)

Row | IC50 [nM] | Compound
25 | 100 to 1000 | CC(C)c1cnn2c(NCc3ccccc3-c3ccc4ccccc4n3)nc(N3CCCC[C@H]3CO)nc12 [Compound 263]
26 | < 100 | CC(C)c1cnn2c(NCc3c(Cl)cccc3-n3ccc(C(C)(C)O)n3)nc(N3CCC(F)(CN)CC3)nc12 [Compound 252]
27 | < 100 | CC(C)c1cnn2c(NCc3c(Cl)cccc3N3CC[C@@H](C(C)(C)O)C3)nc(N3CCC(N)CC3)nc12 [Compound 254]
28 | < 100 | CC(C)c1cnn2c(NCc3c(Cl)cccc3-c3cc(C(C)(C)O)nn3C)nc(N3CCC(N)CC3)nc12 [Compound 258]

The compounds below were run on H460 (assay: Cellular H460 viability assay (CellTiter-Glo, 72 hours)). Conditions: Homo sapiens, NCI-H460.
Format: cell-based
How it was run: (§2)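 Cells plated in 96 wells and exposed to compound 72 h at 37 °C, 5% CO2, final DMSO below 0.1%, DMSO control. Viability by CellTiter-Glo luminescence, duplicate.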

Row | IC50 [nM] | Compound
29 | > 10000 | CC(C)c1cnn2c(NCc3ccccc3-c3ccc4ccccc4n3)nc(N3CCCC[C@H]3CO)nc12 [Compound 263]
30 | < 1000 | CC(C)c1cnn2c(NCc3c(Cl)cccc3-n3ccc(C(C)(C)O)n3)nc(N3CCC(F)(CN)CC3)nc12 [Compound 252]
31 | < 1000 | CC(C)c1cnn2c(NCc3c(Cl)cccc3N3CC[C@@H](C(C)(C)O)C3)nc(N3CCC(N)CC3)nc12 [Compound 254]
32 | < 1000 | CC(C)c1cnn2c(NCc3c(Cl)cccc3-c3cc(C(C)(C)O)nn3C)nc(N3CCC(N)CC3)nc12 [Compound 258]

Each compound was assayed on MV4-11 (assay: Cellular MV4-11 viability assay (CellTiter-Glo, 72 hours)). Conditions: Homo sapiens.
Format: cell-based
How it was run: as §2

Row | IC50 [nM] | Compound
33 | > 10000 | CC(C)c1cnn2c(NCc3ccccc3-c3ccc4ccccc4n3)nc(N3CCCC[C@H]3CO)nc12 [Compound 263]
34 | < 1000 | CC(C)c1cnn2c(NCc3c(Cl)cccc3-n3ccc(C(C)(C)O)n3)nc(N3CCC(F)(CN)CC3)nc12 [Compound 252]
35 | < 1000 | CC(C)c1cnn2c(NCc3c(Cl)cccc3N3CC[C@@H](C(C)(C)O)C3)nc(N3CCC(N)CC3)nc12 [Compound 254]
36 | < 1000 | CC(C)c1cnn2c(NCc3c(Cl)cccc3-c3cc(C(C)(C)O)nn3C)nc(N3CCC(N)CC3)nc12 [Compound 258]

Each compound was assayed on A2780 (assay: Cellular A2780 viability assay (CellTiter-Glo, 72 hours)). Conditions: Homo sapiens.
Format: cell-based
From the text: Human T-cell acute lymphoblastic leukemia cell line, MOLT-4 (ATCC, Cat #CRL-1582), Human multiple myeloma cell line, RPMI-8226 (Invitrogen, Cat #22400-089) and MM.1S (ATCC, Cat #CRL-2974), NSCLC (Non-small cell lung cancer) cell line H460 (ATCC, Cat #HTB-177), Human colon colorectal carcinoma cell line HCT116 (ATCC, Cat #CCL-247), Human acute monocytic leukemia cell line MV4-11 (ATCC, Cat #CRL-9591), OVCAR-3 (ATCC, Cat #HTB-161) and A2780 (ECACC, Cat #93112519) were obtained from ATCC. Cells were grown in RPMI-1640 media (Invitrogen, Cat #22400-089) supplemented with 10% FBS (Invitrogen, Cat #10099141) and 1% penicillin/streptomycin (Invitrogen, Cat #15070063) and cultured at 37° C., 5% CO2 in a humidified chamber. All cell lines were routinely tested for mycoplasma.
The effect of the CDK7 inhibitor to inhibit the growth of target cancer cells was evaluated through the 72 hours time period of viability assay. Briefly, the candidate cell line ware plated in 96 well plate at the following density of cells respectively. 1×10^4 cells/well for MOLT-4, RPMI-8226, MV4-11 and MM.1S, 5×10^3 for H460, HCT116 and OVCAR-3 and IX 10^3 for A2780. After 24 hours, the cells were treated with various concentrations of the compound (ranging from 0.0015 uM to 10 uM). DMSO solvent without compound served as a control and final DMSO concentration less than 0.1%. After 72 hours of incubation at 37° C., 5% CO2 incubator, cells were analyzed for the viability using the CellTiter-Glo Luminescent Cell Viability Assay (Promega, Cat #G7570). All viability assays were performed in duplicate and Luminescence was read using an Envision (Perkin Elmer, USA). Data was analyzed using XLfit software.

Row | IC50 [nM] | Compound
37 | > 10000 | CC(C)c1cnn2c(NCc3ccccc3-c3ccc4ccccc4n3)nc(N3CCCC[C@H]3CO)nc12 [Compound 263]
38 | ≤ 1000 | CC(C)c1cnn2c(NCc3c(Cl)cccc3-n3ccc(C(C)(C)O)n3)nc(N3CCC(F)(CN)CC3)nc12 [Compound 252]
39 | ≤ 1000 | CC(C)c1cnn2c(NCc3c(Cl)cccc3N3CC[C@@H](C(C)(C)O)C3)nc(N3CCC(N)CC3)nc12 [Compound 254]
40 | ≤ 1000 | CC(C)c1cnn2c(NCc3c(Cl)cccc3-c3cc(C(C)(C)O)nn3C)nc(N3CCC(N)CC3)nc12 [Compound 258]
